Legend:
[1] = system: dihydropyrimidine dehydrogenase (DPD); details: cited from earlier work

Description for CNT1: Linearity was established for analytes over the concentration ranges observed and the lower limit of quantification of the LC–MS/MS assay was approximately 0.1 ng/ml for each analyte (Fig. S2).
Standard solutions of all nucleotide targets were serially diluted to generate calibration solutions at concentrations of 0.0, 0.0001, 0.001, 0.01, 0.1, 1.0, and 10 µg/ml. Urine samples were prepared by adding 20 µL of urine solution to 80 µL of 50:50 H2O:MeOH containing internal standard, vortexing and centrifuging at 20,000 × g; then, 50 µL aliquots were placed into glass vials, dried in a SpeedVac and reconstituted in 5% MeOH with 0.1% formic acid for injection.
Samples were quantified using a heated electrospray ionization source (HESI) on a Thermo Scientific TQS Quantiva triple quadrupole mass spectrometer, and separation was achieved using a Thermo Scientific Ultimate 3000 HPLC equipped with an Agilent 120 SB-C18 reversed-phase column (2 × 100 mm, 2.7 µm particle size) maintained at 40 °C. […] For all experiments, the capillary voltage was set to 4.5 kV with a capillary temperature of 350 °C, a vaporizer temperature of 100 °C, a sheath gas flow of 12, an auxiliary gas flow of 13, and a 1.6 sweep gas. For selected reaction monitoring (SRM) mode, Q1 and Q3 were set to 0.7 full width at half maximum (FWHM) resolution, a cycle time of 0.8 s, and a CID gas pressure of 1.5 mTorr.

## O=c1[nH]cc(F)c(=O)[nH]1 [5’-fluorouracil]
[1]
  share of elimination mediated by DPD through hepatic metabolism: 80%

## Nc1ncnc2c1ncn2[C@@H]1O[C@H](CO)[C@@H](O)[C@H]1O [Adenosine]
CNT1; 12 h starvation
  concentration in urine, Slc28a1+/+ vs Slc28a1-/-: not significantly different

## Nc1ccn([C@H]2C[C@H](O)[C@@H](CO)O2)c(=O)n1 [Deoxycytidine]
CNT1; Slc28a1-/- vs Slc28a1+/+, urine collected over 12 h starvation, 8-week-old mice, n = 6
  fold increase of content in urine of Slc28a1-/- mice: 44.8 fold

Reference: publication PMC10235067, “Increased renal elimination of endogenous and synthetic pyrimidine nucleosides in concentrative nucleoside transporter 1 deficient mice” (Nature Communications, 2023)
